In US10308939B2, “Use of an miRNA to reduce proliferation of a cancer cell” (Board of Supervisors of Louisiana State University and …, priority 2014, dated 2019):

Legend:
Type in all cases: cell-based, human
GDF15 mRNA [1] = experiment: qRT-PCR of GDF15 expression in drug-treated LN-229 cells
Description: (§1) Quantitative RT-PCR: Total RNA was isolated using the miRVana miRNA extraction kit (Ambion, Austin, Tex., USA). RNA was reverse transcribed using the High Capacity cDNA Reverse Transcription kit for mRNAs or TaqMan assays for microRNAs (Applied Biosystems, Carlsbad, Calif.). Quantitative real-time PCR was performed in duplicate using a Roche LightCycler 480 Real-Time PCR System (Indianapolis, Ind., USA). Each sample was normalized using GAPDH or RNU6B control (ΔCt) and relative quantification of gene expression was calculated using the comparative Ct (2^−ΔΔCt) method, as described in (Eletto et al., (2008) J. Cell. Physiol. 216: 764-770; Pacifici et al., (2013) J. Cell. Physiol. 228: 1070-1075; Rom et al., (2010) FASEB J. 24: 2292-2300 incorporated herein by reference in their entireties). For the clinical samples relative quantification was represented as 1/ΔCt to maintain real differences in Ct values between samples.
To further analyze the effects of fenofibrate on this gene, the human glioblastoma cell lines, LN-229 and U87MG were exposed to 50 μM fenofibrate and monitored the expression of GDF15 at 24 and 48 h time points. […] Following the treatment, total RNA was extracted and subjected to quantitative real-time PCR (qRT-PCR) using GDF15-specific and GAPDH-specific primers. The results in FIG. 6A show a 60- and 35-fold up-regulation of GDF15 gene expression in the two cell lines.

miR-3189-3p = experiment: qRT-PCR of miR-3189-3p expression in drug-treated LN-229 cells; conditions: for miR-3189-3p relative expression compared to untreated cells: LN-229, 48 h (FIG. 6E)
Description: as §1

GDF15 mRNA [2] = experiment: qRT-PCR of GDF15 expression in fenofibrate-treated U87MG cells; conditions: 50 μM, 24 and 48 h time points
Description: as §1
To further analyze the effects of fenofibrate on this gene, the human glioblastoma cell lines, LN-229 and U87MG were exposed to 50 μM fenofibrate and monitored the expression of GDF15 at 24 and 48 h time points. […] Following the treatment, total RNA was extracted and subjected to quantitative real-time PCR (qRT-PCR) using GDF15-specific and GAPDH-specific primers. […]

miR-3189-5p = experiment: qRT-PCR of miR-3189-5p expression in fenofibrate-treated LN-229 and U87MG cells; conditions: fenofibrate treatment, 48 h
Description: as §1

GDF15 [3] = experiment: Western blot of GDF15 protein in fenofibrate-treated LN-229 cells; conditions: LN-229, fenofibrate treatment
Description: (§2) Western Blot Analysis: Cells were collected by gently scraping in the presence of PBS (Gibco, Life Technologies), followed by centrifugation and disruption of the cell pellet in lysis buffer (50 mM HEPES, pH 7.5, 150 mM NaCl, 1.5 mM MgCl2, 1 mM EGTA, pH 8.4, 10% glycerol, 1% Triton X-100, 1 mM PMSF, 1 mM sodium orthovanadate (NA3VO4), Phosphatase and Protease Inhibitor Cocktails (Sigma). Whole-cell lysates (30 to 70 μg) were separated on a 4-15% SDS-PAGE gel (Bio-Rad, Hercules, Calif.). GDF15 and E2F-1 antibodies were purchased from Cell Signaling Technology (Beverly, Mass.). The antibody to detect p63RhoGEF was obtained from GeneTex (Irvine, Calif.). GDF15 antibody was purchased from R&D Systems (Minneapolis, Minn.), and anti-GRB2 was from BD Transduction Laboratories (San Jose, Calif.). SF3B2 and 14-3-3ζ antibodies were obtained from Santa Cruz Biotechnology.

GDF15 [4] = experiment: ELISA of secreted mature GDF15 in LN-229 culture medium; conditions: LN-229, 48 h following treatment
Description: ELISA Assay: Mature GDF15 was detected in the cell culture medium using the GDF15 Quantikine ELISA kit from R&D Systems (Minneapolis, Minn.), according to the manufacturer's instructions. Sample absorbance was measured at 450 nm using a Bio-Rad Benchmark Plus microplate reader.

Ago2 immunocomplexes = experiment: RNA-binding protein immunoprecipitation (RIP) with Ago2 antibody; conditions: extracts from FF-treated LN-229 cells
Description: RNA-Binding Protein Immunoprecipitation (RIP): RIP assay was performed using Argonaute 2 (Ago2) antibody from Millipore (RIPAb+Ago2 RIP). This kit included negative control mouse IgG antibody and control primers specific for human FOS, which were utilized for the optimization of Ago2-IP in the cellular model. The RIP Ago-IP was performed essentially as previously described (Curtale et al., (2013) Proc. Nat. Acad. Sci. U.S.A. 110: 11499-11504). In brief, 10×10^6 LN-229 cells were used for Ago2-IP and for the IgG isotype control; 2×10^6 cells were used for the extraction of total RNA and for total protein lysates. The cell monolayer was washed twice with cold PBS, and lysed in 500 μl of Lysis Buffer (150 mM KCl, 25 mM Tris-HCl pH 7.4, 5 mM EDTA, 0.5% NP40, 5 mM DTT) supplemented with 10 mM Protease Inhibitor Cocktail, 10 mM PMSF, 10 mM Phosphatase Inhibitor, 10 mM Na3VO4 and 100 U/ml RNase Inhibitor (Applied Biosystems). After 30 min of incubation on ice, lysates were centrifuged for 30 min at 14,000 rpm at 4° C. in a microcentrifuge. 30 μL of Protein A/G Magnetic Beads (Pierce, Thermo Scientific, Waltham, Mass.) were washed three times with Blocking Solution (0.5% BSA dissolved in DPBS+/+) and incubated for 1 h at 4° C. with 5 μg of anti-Ago2 mouse monoclonal IgG1κ or with isotype IgG1κ control antibodies (Millipore). The immunocomplexes were washed three times with Blocking Solution. […]

LN-229 and U87MG cells = experiment: Cell proliferation assay (MTS)
Description: For transfection experiments, cells were seeded at a density of 4×10^5 cells/60 mm dish or 2.5×10^4 cells/well in 12-well plates, and transfected using Lipofectamine 2000 (Life Technologies, Grand Island, N.Y.) per manufacturer's instructions. SF3B2 and p63RhoGEF siRNAs and controls were purchased from Santa Cruz (Santa Cruz, Calif.), and were used at the final concentration of 10 nM. Human PPARα siRNA was the ON-TARGET plus SMART pool from Thermo Scientific Dharmacon (Lafayette, Colo.), and it was used at the final concentration of 100 nM. The PPARα […] WY146,43 was from Cayman Chemical (St. Louis, Mo.). For the transient transfection experiments, cells were seeded at a density of 4×10^5 cells/60 mm dish or 2.5×10^4 cells/well in 12-well plates, and transfected using Lipofectamine 2000 reagent (Life Technologies) per manufacturer's instructions.
At 72 h after transfection, cells were incubated with medium containing 3-(4,5-dimethylthiazol-2-yl)-5-(3-carboxymethoxyphenyl)-2-(4-sulfophenyl)-2H-tetrazolium (MTS) reagent (Promega) diluted according to manufacturer's instructions. Cells were then incubated at 37° C. for 30-60 min and absorbance was measured at a wavelength of 490 nm using a Bio-Rad Benchmark Plus microplate reader.

SF3B2 mRNA = experiment: qRT-PCR of SF3B2 mRNA in transfected LN-229 and U87MG cells; conditions: co-expressed with miR-3189-3p
Description: as §1

p63RhoGEF mRNA = experiment: qRT-PCR of p63RhoGEF mRNA in transfected LN-229 and U87MG cells; conditions: co-expressed with miR-3189-3p
Description: as §1

SF3B2 3′UTR = experiment: Dual luciferase assay, psiCHECK2/SF3B2 3′UTR in LN-229 cells; conditions: co-transfected with miR-3189-3p mimic
Text: (§3) Cloning for microRNA Functional Analysis: The genomic sequence corresponding to the 3′UTR of p63RhoGEF was PCR amplified from LN-229 cells. This PCR product was ligated into the multiple cloning sites downstream of the Renilla luciferase reporter gene in the psiCHECK-2 vector (Promega, Madison, Wis.). This vector also contains a firefly luciferase reporter sequence, which allows for normalization of transfection efficiency. The primers used were: forward, 5′-[…] (SEQ ID NO: 7), containing the XhoI restriction site (underlined) and reverse, 5′-[…] (SEQ ID NO: 8), containing the NotI restriction site (underlined). The genomic sequence corresponding to the 3′UTR of SF3B2 was also cloned into the psiCHECK-2 vector. The primers used were: forward, 5′-[…] (SEQ ID NO: 9), containing the XhoI restriction site (underlined) and reverse, 5′-[…] (SEQ ID NO: 10) containing the NotI restriction site (underlined).
(§4) The oligonucleotides for the mutagenesis of p63RhoGEF sites were as follows: site 1 forward, 5′-[…] (SEQ ID NO: 11), site 2 forward, 5′-[…] (SEQ ID NO: 12), and site 3 forward, 5′-[…] (SEQ ID NO: 13). […]
(§5) After 24 h, cells were harvested and lysates were assayed for luciferase activity with the Dual-Luciferase Reporter Assay System (Promega) using a Synergy 2 microplate reader (BioTek Instruments, Inc., Winooski, Vt.). […]

p63RhoGEF 3′UTR = experiment: Dual luciferase assay, psiCHECK2/p63RhoGEF 3′UTR in LN-229 cells; conditions: co-transfected with miR-3189-3p mimic
Text: as §3, §4, §5

E2F-1 = experiment: Western blot of E2F-1 protein in LN-229 cells; conditions: co-transfected with miR-3189-3p
Description: as §2

LN-229 cells = experiment: Rescue from fenofibrate-induced cell death; conditions: LN-229 cells treated with fenofibrate
[5] = 48 h after treatment/transfection, with fenofibrate

Cc1cccc(Nc2cc(Cl)nc(SCC(=O)O)n2)c1C [WY146,43]
impact on GDF15 levels triggered by fenofibrate (GDF15 mRNA [1]; [5]): no significant impact | impact on miR-3189-3p levels triggered by fenofibrate (miR-3189-3p; [5]): no significant impact

CC(C)OC(=O)C(C)(C)Oc1ccc(C(=O)c2ccc(Cl)cc2)cc1 [fenofibrate, propan-2-yl 2-{4-[(4-chlorophenyl)carbonyl]phenoxy}-2-methylpropanoate]
up-regulation of GDF15 gene expression (GDF15 mRNA [1]; 50 μM, 24 and 48 h time points, LN-229): 60 fold | GDF15 mRNA up-regulation relative to untreated cells (GDF15 mRNA [1]; LN-229, 48 h, comparison with doxorubicin and paclitaxel (FIG. 6E)): more than 60 folds | up-regulation of GDF15 gene expression (GDF15 mRNA [2]): 35 fold | miR-3189-3p relative expression compared to untreated cells (miR-3189-3p): 4.8 fold | expression of miR-3189-5p (miR-3189-5p): did not change | GDF15 protein content (GDF15 [3]): large increase | secreted GDF15 (GDF15 [4]): significant levels | overexpression of miR-3189-3p linked to Ago2 immunocomplexes compared to untreated cells (Ago2 immunocomplexes): ~35 fold

CC(=O)O[C@H]1C(=O)[C@@]2(C)[C@H]([C@H](OC(=O)c3ccccc3)[C@]3(O)C[C@H](OC(=O)[C@H](O)[C@@H](NC(=O)c4ccccc4)c4ccccc4)C(C)=C1C3(C)C)[C@]1(OC(C)=O)CO[C@@H]1C[C@@H]2O [paclitaxel]
miR-3189-3p relative expression compared to untreated cells (miR-3189-3p): only in fenofibrate treated cells

COc1cccc2c1C(=O)c1c(O)c3c(c(O)c1C2=O)C[C@@](O)(C(=O)CO)C[C@@H]3O[C@H]1C[C@H](N)[C@H](O)[C@H](C)O1 [doxorubicin]
miR-3189-3p relative expression compared to untreated cells (miR-3189-3p): only in fenofibrate treated cells

miR-3189-5p: mature microRNA of 25 nucleotides from the miR-3189 stem-loop (SEQ ID NO: 21) (GUUGCCCCAUCUGUGCCCUGGGUAGGA; listed as RNA, chemistry not fully specified)
changes in cell morphology, cell proliferation and migration (LN-229 and U87MG cells; transfection of LN-229 and U87MG cells): did not elicit changes in cell morphology, nor inhibited cell proliferation and migration

anti-miR-3189-3p: miR-3189-3p mirVana miRNA inhibitor (SEQ ID NO: 22) purchased from Life Technologies (UGCCCCAUCUGUGCCCUGGGUAGGA; listed as RNA, chemistry not given here)
changes in proliferation and cell cycle on co-transfection with miR-3189-3p (LN-229 and U87MG cells; co-transfected with miR-3189-3p): No significant changes | effect on miR-3189-3p downregulation of SF3B2 transcript (SF3B2 mRNA): counteracted | effect on miR-3189-3p downregulation of p63RhoGEF transcript (p63RhoGEF mRNA): counteracted | effect on miR-3189-3p inhibition of SF3B2 3′UTR reporter (SF3B2 3′UTR): almost completely alleviated | effect on miR-3189-3p inhibition of p63RhoGEF 3′UTR reporter (p63RhoGEF 3′UTR): efficiently reverted | effect on miR-3189-3p down-regulation of E2F-1 (E2F-1): reversed | rescue from fenofibrate-induced cell death (LN-229 cells): did not rescue
